Results published in patent publication US12128035B2, “Activating pyruvate kinase R” (Novo Nordisk Health Care AG, priority 2021, dated 2024).

Test system: 2,3-DPG blood levels
Assay: Phase 1 SAD/MAD: blood 2,3-DPG (LC-MS/MS) in healthy volunteers
Assay type: in vivo, human
Settings: for median and mean reduction in 2,3-DPG, relative to baseline: all MAD dose levels
Protocol: In this study, SAD/MAD cohorts are randomized (3 to 1) to receive Compound 1 or placebo (P). Compound 1 was evaluated first in 4 healthy SAD cohorts and 4 healthy MAD (14-day dosing period) cohorts. Based on the safety, and PK/PD profile from HS, Compound 1 is then evaluated in 1 SCD SAD cohort and 2 SCD MAD cohorts. Specifically, based on the safety and pharmacokinetic/pharmacodynamics (PK/PD) profile in healthy volunteer studies, Compound 1 is evaluated in patients (pts) with SCD, first in a single dose (SD or SAD) cohort and then in multiple-dose (MD or MAD) cohorts (14-day and 12-week). Safety assessments include AEs, vital signs, ECGs and laboratory parameters. PK/PD blood sampling was performed on Day 1 (SAD/MAD) and Day 14 (MAD) and up to 72 h after the last dose and at the end-of-study visit. PD parameters included 2,3-DPG, ATP, and p50 in all cohorts with additional PD studies (including oxygen scan) performed only in the SCD cohorts. PD parameters included 2,3-DPG, ATP, p50, RBC deformability with controlled deoxygenation and reoxygenation (Lorrca® oxygen scan) and varying osmolality (Lorrca® osmoscan)). To maintain study blind, pt identifiers were removed when needed.
In the SAD cohorts, the subjects' blood 2,3-DPG levels were measured periodically after dosing by a qualified LC-MS/MS method for the quantitation of 2,3-DPG in blood. Decreased 2,3-DPG blood levels were observed 6 hours following a single dose of Compound 1 at all dose levels (earlier timepoints were not collected). Maximum decreases in 2,3-DPG levels generally occurred ˜24 hours after the first dose with the reduction sustained ˜48-72 hr postdose. Table 15 reports the median percentage change in 2,3-DPG blood levels, relative to baseline, measured over time in healthy volunteers after a single dose of Compound 1 (200 mg, 400 mg, 700 mg, or 1000 mg) or placebo. Table 16 reports the mean percentage change in 2,3-DPG blood levels, relative to baseline, measured over time in healthy volunteers after a single dose of Compound 1 (200 mg, 400 mg, 700 mg, or 1000 mg). Accordingly, the median and mean reduction in the concentration of 2,3-DPG, relative to baseline, was at least about 30% at all dose levels tested 24 hours after administration of the single dose.
In the MAD cohorts, the subjects' blood 2,3-DPG levels were measured periodically after dosing by a qualified LC-MS/MS method for the quantitation of 2,3-DPG in blood. […] Table 18B reports the mean percentage change in 2,3-DPG blood levels, relative to baseline, measured over time after the first dose on days 1 and 14 in healthy volunteers who received daily doses of Compound 1 (100 mg BID, 200 mg BID, 300 mg BID, or 400 mg QD) for 14 days. Accordingly, the median and mean reduction in the concentration of 2,3-DPG, relative to baseline, was at least about 25% at all dose levels tested 24 hours after administration of the first dose on day 1 and at least about 40% at all dose levels tested 24 hours after administration of the first dose on day 14.
The following procedures are employed for the analysis of ATP and 2,3-DPG in human whole blood K2EDTA using a protein precipitation extraction procedure and analysis by LC-MS/MS.
The following procedures are used for sample extraction prior to analysis via LC-MS/MS. 15.0 μL of the calibration standards, quality controls, matrix blanks, and samples are aliquoted into a 96-well plate. 50.0 μL of the internal standard spiking solution is added to all samples on the plate, with the exception of the matrix blank samples; 50.0 μL of water is added to the matrix blank samples. Subsequently, 150 μL of water is added to all samples on the plate. The plate is then covered and agitated by vortex at high speed for ten minutes, after which 750 μL of methanol is added to all samples on the plate. The plate is covered and agitated by vortex for approximately 1 minute. The plate is then centrifuged at approximately 3500 RPM at approximately 4° C. for five minutes. […]

[1] = HV 400 mg QD, Day 14, 8 h after first daily dose
[2] = HV 400 mg QD, Day 14, 12 h after first daily dose
[3] = HV 400 mg QD, Day 14, 16 h after first daily dose
[4] = HV 400 mg QD, Day 14, 24 h after first daily dose
[5] = HV 400 mg QD, Day 14, 48 h after first daily dose
[6] = HV 400 mg QD, Day 14, 72 h after first daily dose
[7] = HV single 200 mg, 0 h after dose
[8] = HV single 200 mg, 6 h after dose
[9] = HV single 200 mg, 8 h after dose
[10] = HV single 200 mg, 12 h after dose
[11] = HV single 200 mg, 16 h after dose
[12] = HV single 200 mg, 24 h after dose
[13] = HV single 200 mg, 36 h after dose
[14] = HV single 200 mg, 48 h after dose
[15] = HV single 200 mg, 72 h after dose
[16] = HV single 400 mg, 0 h after dose
[17] = HV single 400 mg, 6 h after dose
[18] = HV single 400 mg, 8 h after dose
[19] = HV single 400 mg, 12 h after dose
[20] = HV single 400 mg, 16 h after dose
[21] = HV single 400 mg, 24 h after dose
[22] = HV single 400 mg, 36 h after dose
[23] = HV single 400 mg, 48 h after dose
[24] = HV single 400 mg, 72 h after dose
[25] = HV single 700 mg, 0 h after dose
[26] = HV single 700 mg, 6 h after dose
[27] = HV single 700 mg, 8 h after dose
[28] = HV single 700 mg, 12 h after dose
[29] = HV single 700 mg, 16 h after dose
[30] = HV single 700 mg, 24 h after dose
[31] = HV single 700 mg, 36 h after dose
[32] = HV single 700 mg, 48 h after dose
[33] = HV single 700 mg, 72 h after dose
[34] = HV single 1000 mg, 0 h after dose
[35] = HV single 1000 mg, 6 h after dose
[36] = HV single 1000 mg, 8 h after dose
[37] = HV single 1000 mg, 12 h after dose
[38] = HV single 1000 mg, 16 h after dose
[39] = HV single 1000 mg, 24 h after dose
[40] = HV single 1000 mg, 36 h after dose
[41] = HV single 1000 mg, 48 h after dose
[42] = HV single 1000 mg, 72 h after dose

## O=C([C@H](CO)c1ccccc1)N1CC2=C(C1)CN(S(=O)(=O)c1cnc3c(c1)OCCO3)C2 (single isomer, unassigned) [Compound 1]
[1]
  Mean Percentage Change in 2,3-DPG Levels: −55%
  Median Percentage Change in 2,3-DPG Levels: −56%
[2]
  Mean Percentage Change in 2,3-DPG Levels: −50%
  Median Percentage Change in 2,3-DPG Levels: −49%
[3]
  Mean Percentage Change in 2,3-DPG Levels: −51%
  Median Percentage Change in 2,3-DPG Levels: −52%
[4]
  Mean Percentage Change in 2,3-DPG Levels: −53%
  Median Percentage Change in 2,3-DPG Levels: −53%
[5]
  Mean Percentage Change in 2,3-DPG Levels: −38%
  Median Percentage Change in 2,3-DPG Levels: −40%
[6]
  Mean Percentage Change in 2,3-DPG Levels: −28%
  Median Percentage Change in 2,3-DPG Levels: −25%
HV MAD cohorts, Day 14
  maximum decrease in 2,3-DPG from baseline (median): 55%
HV MAD, all doses and timepoints (N = 36)
  Mean Maximum Percent Change from Baseline, 2,3-DPG: −56.3%
HV SAD cohorts
  2,3-DPG reduction sustained postdose: 48 to 72 h
HV SAD, all doses and timepoints (N = 24)
  Mean Maximum Percent Change from Baseline, 2,3-DPG: −46.8%
[7]
  Mean Percentage Change in 2,3-DPG Levels: 0%
  Median Percentage Change in 2,3-DPG Levels: 0.0%
[8]
  Mean Percentage Change in 2,3-DPG Levels: −17%
  Median Percentage Change in 2,3-DPG Levels: −18%
[9]
  Mean Percentage Change in 2,3-DPG Levels: −21%
  Median Percentage Change in 2,3-DPG Levels: −17%
[10]
  Mean Percentage Change in 2,3-DPG Levels: −26%
  Median Percentage Change in 2,3-DPG Levels: −25%
[11]
  Mean Percentage Change in 2,3-DPG Levels: −28%
  Median Percentage Change in 2,3-DPG Levels: −33%
[12]
  Mean Percentage Change in 2,3-DPG Levels: −30%
  Median Percentage Change in 2,3-DPG Levels: −31%
[13]
  Mean Percentage Change in 2,3-DPG Levels: −31%
  Median Percentage Change in 2,3-DPG Levels: −33%
[14]
  Mean Percentage Change in 2,3-DPG Levels: −33%
  Median Percentage Change in 2,3-DPG Levels: −29%
[15]
  Mean Percentage Change in 2,3-DPG Levels: −14%
  Median Percentage Change in 2,3-DPG Levels: −18%
HV single 400 mg
  time of pharmacodynamic maximum (minimum of the 2,3-DPG concentration): ~24 h
[16]
  Mean Percentage Change in 2,3-DPG Levels: 0%
  Median Percentage Change in 2,3-DPG Levels: 0.0%
[17]
  Mean Percentage Change in 2,3-DPG Levels: −24%
  Median Percentage Change in 2,3-DPG Levels: −23%
[18]
  Mean Percentage Change in 2,3-DPG Levels: −29%
  Median Percentage Change in 2,3-DPG Levels: −29%
[19]
  Mean Percentage Change in 2,3-DPG Levels: −35%
  Median Percentage Change in 2,3-DPG Levels: −40%
[20]
  Mean Percentage Change in 2,3-DPG Levels: −38%
  Median Percentage Change in 2,3-DPG Levels: −35%
[21]
  Mean Percentage Change in 2,3-DPG Levels: −41%
  Median Percentage Change in 2,3-DPG Levels: −39%
[22]
  Mean Percentage Change in 2,3-DPG Levels: −37%
  Median Percentage Change in 2,3-DPG Levels: −38%
[23]
  Mean Percentage Change in 2,3-DPG Levels: −34%
  Median Percentage Change in 2,3-DPG Levels: −31%
[24]
  Mean Percentage Change in 2,3-DPG Levels: −30%
  Median Percentage Change in 2,3-DPG Levels: −30%
[25]
  Mean Percentage Change in 2,3-DPG Levels: 0%
  Median Percentage Change in 2,3-DPG Levels: 0.0%
[26]
  Mean Percentage Change in 2,3-DPG Levels: −30%
  Median Percentage Change in 2,3-DPG Levels: −29%
[27]
  Mean Percentage Change in 2,3-DPG Levels: −29%
  Median Percentage Change in 2,3-DPG Levels: −28%
[28]
  Mean Percentage Change in 2,3-DPG Levels: −41%
  Median Percentage Change in 2,3-DPG Levels: −41%
[29]
  Mean Percentage Change in 2,3-DPG Levels: −46%
  Median Percentage Change in 2,3-DPG Levels: −46%
[30]
  Mean Percentage Change in 2,3-DPG Levels: −49%
  Median Percentage Change in 2,3-DPG Levels: −49%
[31]
  Mean Percentage Change in 2,3-DPG Levels: −47%
  Median Percentage Change in 2,3-DPG Levels: −46%
[32]
  Mean Percentage Change in 2,3-DPG Levels: −48%
  Median Percentage Change in 2,3-DPG Levels: −48%
[33]
  Mean Percentage Change in 2,3-DPG Levels: −32%
  Median Percentage Change in 2,3-DPG Levels: −33%
[34]
  Mean Percentage Change in 2,3-DPG Levels: 0%
  Median Percentage Change in 2,3-DPG Levels: 0.0%
[35]
  Mean Percentage Change in 2,3-DPG Levels: −18%
  Median Percentage Change in 2,3-DPG Levels: −21%
[36]
  Mean Percentage Change in 2,3-DPG Levels: −31%
  Median Percentage Change in 2,3-DPG Levels: −33%
[37]
  Mean Percentage Change in 2,3-DPG Levels: −35%
  Median Percentage Change in 2,3-DPG Levels: −38%
[38]
  Mean Percentage Change in 2,3-DPG Levels: −40%
  Median Percentage Change in 2,3-DPG Levels: −40%
[39]
  Mean Percentage Change in 2,3-DPG Levels: −44%
  Median Percentage Change in 2,3-DPG Levels: −48%
[40]
  Mean Percentage Change in 2,3-DPG Levels: −46%
  Median Percentage Change in 2,3-DPG Levels: −47%
[41]
  Mean Percentage Change in 2,3-DPG Levels: −43%
  Median Percentage Change in 2,3-DPG Levels: −44%
[42]
  Mean Percentage Change in 2,3-DPG Levels: −27%
  Median Percentage Change in 2,3-DPG Levels: −24%
HV single 200, 400, 700 or 1000 mg
  lag of maximum decrease in blood 2,3-DPG behind maximum plasma concentration: about 24 hours
HV single dose (400 mg), FIG. 41
  time of maximal decrease in blood 2,3-DPG post-dose: 16 to 24 h
MAD study
  mean maximum reduction in the concentration of 2,3-DPG: at least 50%
  mean maximum reduction of 2,3-DPG, range: 46.1-63.6%
SAD study
  mean maximum reduction in the concentration of 2,3-DPG: at least 40%
  mean maximum reduction of 2,3-DPG, range: 35.4-56.1%
24 hours after first dose on day 1
  median and mean reduction in 2,3-DPG, relative to baseline: at least 25%
24 hours after first dose on day 14
  median and mean reduction in 2,3-DPG, relative to baseline: at least 40%
All SAD dose levels, 24 hours after the single dose
  median and mean reduction in the concentration of 2,3-DPG, relative to baseline: at least 30%
